What was measured:
[1] = target: C-Raf kinase (SEQ. ID NO: 3) (Homo sapiens (Human), UniProt P04049, Y340D/Y341D); assay: Biochemical Assay for C-Raf (2); settings: Table J, biochemical assay (2); read-out: CRAF (2)
Description: Biochemical Assay for C-Raf (2)
Activity of C-Raf kinase (SEQ. ID NO: 3) was determined spectroscopically using a coupled pyruvate kinase/lactate dehydrogenase assay that continuously monitors the ATP hydrolysis-dependent oxidation of NADH (e.g., Schindler et al., Science, 2000, 289, 1938-1942). Assays were conducted in 384-well plates (25 μL final volume) using 3.84 nM C-Raf (Eurofins), 1.5 units pyruvate kinase, 2.1 units lactate dehydrogenase, 1 mM phosphoenol pyruvate, 0.7 mM NADH, 50 nM MEK (SignalChem), and 1 mM ATP in assay buffer (100 mM Tris, pH 7.5, 15 mM MgCl2, 0.5 mM DTT, 0.1% octyl-glucoside, 0.002% (w/v) BSA, and 0.002% Triton X-100). Inhibition of C-Raf was measured by adding serial diluted test compound (final assay concentration of 1% DMSO). A decrease in absorption at 340 nm was monitored hourly for 4 h at 30° C. on a multi-mode microplate reader (BioTek). The reaction rate was calculated using the 2 to 3 h time frame. The reaction rate at each concentration of compound was converted to percent inhibition using controls (i.e., reaction with no test compound and reaction with a known inhibitor) and IC50 values were calculated by fitting a four-parameter sigmoidal curve to the data using Prism (GraphPad software).

[2] = target: B-Raf (V600E) (SEQ. ID NO: 4) kinase (Homo sapiens (Human), UniProt P15056, V600E); assay: Biochemical Assay for B-Raf (V600E) (2); settings: Table J, BRAF V600E, biochemical assay (2); read-out: BRAF VE (2)
Description: Biochemical Assay for B-Raf (V600E) (2)
Activity of B-Raf (V600E) (SEQ. ID NO: 4) kinase was determined spectroscopically using a coupled pyruvate kinase/lactate dehydrogenase assay that continuously monitors the ATP hydrolysis-dependent oxidation of NADH (e.g., Schindler et al., Science, 2000, 289, 1938-1942). Assays were conducted in 384-well plates (25 μL final volume) using 0.5 nM B-Raf (deCode), 1.5 units pyruvate kinase, 2.1 units lactate dehydrogenase, 1 mM phosphoenol pyruvate, 0.7 mM NADH, 100 nM MEK (SignalChem), and 1 mM ATP in assay buffer (100 mM Tris, pH 7.5, 15 mM MgCl2, 0.5 mM DTT, 0.1% octyl-glucoside, 0.002% (w/v) BSA, and 0.002% Triton X-100). Inhibition of B-Raf (V600E) was measured by adding serial diluted test compound (final assay concentration of 1% DMSO). A decrease in absorption at 340 nm was monitored hourly for 4 h at 30° C. on a multi-mode microplate reader (BioTek). The reaction rate was calculated using the 3 to 4 h time frame. The reaction rate at each concentration of compound was converted to percent inhibition using controls (i.e., reaction with no test compound and reaction with a known inhibitor) and IC50 values were calculated by fitting a four-parameter sigmoidal curve to the data using Prism (GraphPad software).

A375 cells = assay: A375 Cell Proliferation Assay (2); assay type: cell-based; settings: Homo sapiens, A-375
Description: A375 Cell Proliferation Assay (2)
A375 cells (catalog (#CRL-1619) are obtained from the American Type Culture Collect (ATTC, Manassas, VA). Briefly, cells were grown in DMEM High Glucose supplemented with 10% characterized fetal bovine serum (Invitrogen, Carlsbad, CA) and 1% Penicillin/Streptomycin/L-Glutamine at 37° C., 5% CO2, and 95% humidity. Cells are expanded until reaching 70-95% confluency at which point they are sub-cultured or harvested for assay use. Using the Beckman Coulter Echo 650, a serial dilution of test compound is dispensed into a 384-well black clear bottom plate in triplicate. Six hundred twenty-five cells are added per well in 50 μL complete growth medium in the 384-well plate. Plates are incubated for 67-72 h at 37° C., 5% CO2, and 95% humidity. At the end of the incubation, 10 μL of a 440 μM solution of resazurin (Sigma, St. Louis, MO) in PBS is added to each well of the plate and plates are incubated for an additional 3-6 h at 37° C., 5% CO2, and 95% humidity. Plates are read on a Synergy2 or equivalent reader (Biotek, Winooski VT) using an excitation of 540 nm and an emission of 600 nm. Data is analyzed using Prism software (GraphPad, San Diego, CA) to calculate IC50 values.

WM3928 cells = assay: WM3928 Cell Proliferation Assay (2); assay type: cell-based
Description: WM3928 Cell Proliferation Assay (2)
WM3928 cells (#WM3928-01-0001) are obtained from Rockland Immunochemicals Inc (Gilbertsville, PA). Briefly, cells were grown in MCDB 153 medium (Sigma, #M7403, St. Louis, MO) supplemented with 20% Leibovitz's L-15 (ThermoFisher #11415-064, Waltham, MA), 2% heat inactivated fetal bovine serum (ThermoFisher, #A3840001, Waltham, MA), 5 μg/mL Insulin (Bovine Pancreas) (Sigma, #10516, St. Louis, MO), 1.68 mM Calcium Chloride (Sigma, #C-34006, St. Louis, MO) and 1% Penicillin/Streptomycin/L-Glutamine (ThermoFisher #10378016, Waltham, MA) at 37° C., 5% CO2, and 95% humidity. Cells are expanded until reaching 70-95% confluency at which point they are sub-cultured or harvested for assay use. Using the Beckman Coulter Echo 650, a serial dilution of test compound is dispensed into a 384-well black clear bottom plate in triplicate. Seven hundred fifty cells are added per well in 50 μL complete growth medium in the 384-well plate. Plates are incubated for 67-72 hours at 37° C., 5% CO2, and 95% humidity. At the end of the incubation, 10 μL of a 440 μM solution of resazurin (Sigma, #199303, St. Louis, MO) in PBS is added to each well of the plate and plates are incubated for an additional 3-6 hours at 37° C., 5% CO2, and 95% humidity. Plates are read on a Synergy2 or equivalent reader (Biotek, Winooski VT) using an excitation of 540 nm and an emission of 600 nm. Data is analyzed using Prism software (GraphPad, San Diego, CA) to calculate IC50 values.

Chain of C-Raf kinase (SEQ. ID NO: 3) (P04049 307-648 Y340D/Y341D): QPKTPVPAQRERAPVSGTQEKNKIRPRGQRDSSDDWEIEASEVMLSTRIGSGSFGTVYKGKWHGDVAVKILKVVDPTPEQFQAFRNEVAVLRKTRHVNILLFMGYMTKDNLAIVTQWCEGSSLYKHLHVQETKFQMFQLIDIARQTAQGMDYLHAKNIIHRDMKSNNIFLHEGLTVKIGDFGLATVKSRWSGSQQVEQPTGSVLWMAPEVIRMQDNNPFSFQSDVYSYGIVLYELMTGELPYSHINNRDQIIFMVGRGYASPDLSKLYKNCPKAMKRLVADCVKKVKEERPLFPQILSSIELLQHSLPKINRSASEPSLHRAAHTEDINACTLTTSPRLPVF
Chain of B-Raf (V600E) (SEQ. ID NO: 4) kinase (P15056 416-766 V600E): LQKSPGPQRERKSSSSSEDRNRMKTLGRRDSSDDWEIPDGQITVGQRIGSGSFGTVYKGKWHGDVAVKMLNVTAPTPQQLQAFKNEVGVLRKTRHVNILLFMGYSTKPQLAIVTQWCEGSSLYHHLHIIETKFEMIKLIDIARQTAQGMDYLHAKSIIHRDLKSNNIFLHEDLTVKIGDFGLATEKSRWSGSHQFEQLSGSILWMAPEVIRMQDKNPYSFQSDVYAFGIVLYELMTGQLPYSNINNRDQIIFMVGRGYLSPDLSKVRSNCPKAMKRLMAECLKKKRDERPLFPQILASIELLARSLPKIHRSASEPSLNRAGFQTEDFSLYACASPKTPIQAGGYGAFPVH

SMILES | IC50 [1] [nM] | IC50 [2] [nM] | IC50 (A375 cells) [nM] | IC50 (WM3928 cells) [nM]
Cc1ncc(NC(=O)c2ccnc(C(C)(F)F)c2)cc1-c1ccnc(-c2ccnc(NC(=O)C3CC3)c2)c1 [Example 466] | ≤ 100 | ≤ 100 | 100 to 500 | ≤ 100
CNC(=O)c1cc(-c2cncc(-c3cc(NC(=O)c4ccnc(C(C)C)c4)ccc3C)c2)ncn1 [Example 446] | ≤ 100 | ≤ 100 | 100 to 500 | ≤ 100
Cc1ccc(NC(=O)c2ccnc(C(C)(C)F)c2)cc1-c1ccnc(-c2ccnc(NC(=O)C3CC3)c2)c1 [Example 455] | ≤ 100 | ≤ 100 | ≤ 100 | ≤ 100
CNC(=O)c1cc(-c2cc(-c3cc(NC(=O)c4ccnc(C5CC5)c4)cnc3C)ccn2)ccn1 [Example 462] | ≤ 100 | 100 to 500 | 1000 to 10000 | 500 to 1000
CNC(=O)c1cc(-c2cc(-c3cc(NC(=O)c4ccnc(C(C)C)c4)cnc3C)ccn2)ccn1 [Example 465] | ≤ 100 | ≤ 100 | 500 to 1000 | 100 to 500
Cc1ccc(NC(=O)c2ccnc(C(C)C)c2)cc1-c1ccnc(-c2ccnc(NC(=O)C3CC3)c2)c1 [Example 467] | ≤ 100 | ≤ 100 | ≤ 100 | ≤ 100
CNC(=O)c1cc(-c2cncc(-c3cc(NC(=O)c4ccnc(C(C)C)c4)ccc3C)c2)ccn1 [Example 445] | ≤ 100 | ≤ 100 | 100 to 500 | ≤ 100
CNC(=O)c1cc(-c2cc(-c3cc(NC(=O)c4ccnc(C(C)(F)F)c4)cnc3C)ccn2)ccn1 [Example 463] | ≤ 100 | ≤ 100 | 500 to 1000 | 100 to 500
CNC(=O)c1cc(-c2cc(-c3cc(NC(=O)c4ccnc(C5(C#N)CC5)c4)cnc3C)ccn2)ccn1 [Example 464] | ≤ 100 | ≤ 100 | 100 to 500 | 100 to 500
Cc1ccc(NC(=O)c2ccnc(C3(C#N)CC3)c2)cc1-c1ccnc(-c2ccnc(NC(=O)C3CC3)c2)c1 [Example 457] | ≤ 100 | ≤ 100 | ≤ 100 | ≤ 100
Cc1ccc(NC(=O)c2ccnc(C(C)(F)F)c2)cc1-c1ccnc(-c2ccnc(NC(=O)C3CC3)c2)c1 [Example 459] | ≤ 100 | ≤ 100 | ≤ 100 | ≤ 100
Cc1ccc(NC(=O)c2ccnc(C(C)(C)C#N)c2)cc1-c1ccnc(-c2ccnc(NC(=O)C3CC3)c2)c1 [Example 456] | ≤ 100 | ≤ 100 | ≤ 100 | ≤ 100
CNC(=O)c1cc(-c2cc(-c3cc(NC(=O)c4ccnc(C5CC5)c4)ccc3C)ccn2)ccn1 [Example 460] | ≤ 100 | ≤ 100 | 100 to 500 | ≤ 100

Now from value to molecule, other results behind:

IC50 [1] [nM] | IC50 [2] [nM] | IC50 (A375 cells) [nM] | SMILES | IC50 (WM3928 cells) [nM]
≤ 100 | ≤ 100 | ≤ 100 | CNC(=O)c1cc(-c2cc(-c3cc(NC(=O)c4ccnc(C(C)(C)F)c4)ccc3C)cnn2)ccn1 [Example 473] | ≤ 100
≤ 100 | 100 to 500 | 100 to 500 | CNC(=O)c1cc(-c2cc(-c3cc(NC(=O)c4ccnc(C(C)(C)F)c4)ccc3F)ccn2)ccn1 [Example 479] | ≤ 100
1000 to 10000 | 1000 to 10000 | 1000 to 10000 | CNC(=O)c1cc(-c2cc(-c3cc(F)cc(NC(=O)c4ccnc(C(C)(C)F)c4)c3F)ccn2)ccn1 [Example 475] | 1000 to 10000
≤ 100 | ≤ 100 | ≤ 100 | Cc1ccc(NC(=O)c2ccnc(C(C)(C)F)c2)cc1-c1ccnc(-c2ccnc(C(=O)NCC#N)c2)c1 [Example 451] | ≤ 100
100 to 500 | ≤ 100 | 100 to 500 | Cc1ccc(NC(=O)c2ccnc(C(C)(C)F)c2)cc1-c1ccnc(-c2ccnc(C(=O)NC3CN(C)C3)c2)c1 [Example 450] | 100 to 500
100 to 500 | ≤ 100 | 100 to 500 | CNC(=O)c1cc(-c2cc(-c3cc(NC(=O)c4ccnc(C(C)(C)F)c4)cc(F)c3C)ccn2)ccn1 [Example 480] | ≤ 100
≤ 100 | ≤ 100 | ≤ 100 | CNC(=O)c1cc(-c2cc(-c3cc(NC(=O)c4ccnc(C(C)(C)F)c4)ccc3C)ncn2)ccn1 [Example 474] | ≤ 100
≤ 100 | ≤ 100 | 100 to 500 | CNC(=O)c1cc(-c2cc(-c3cc(NC(=O)c4ccnc(C(C)(C)F)c4)ccc3C)cc(C)n2)ccn1 [Example 470] | ≤ 100
≤ 100 | ≤ 100 | 100 to 500 | CNC(=N)c1cc(-c2cc(-c3cc(NC(=O)c4ccnc(C(C)(C)F)c4)ccc3C)ccn2)ccn1 [Example 452] | 100 to 500
100 to 500 | ≤ 100 | 1000 to 10000 | CNC(=O)c1cc(-c2cc(-c3cc(NC(=O)c4ccnc(C(C)(C)F)c4)cc(F)c3F)ccn2)ccn1 [Example 478] | 100 to 500
≤ 100 | ≤ 100 | 100 to 500 | CNC(=O)c1cc(-c2cc(-c3cc(NC(=O)c4ccnc(C(C)(C)F)c4)ccc3C)c(F)cn2)ccn1 [Example 469] | 100 to 500
≤ 100 | ≤ 100 | ≤ 100 | CNC(=O)c1cc(-c2cc(-c3cc(NC(=O)c4ccnc(C(C)(F)F)c4)ccc3C)ccn2)ccn1 [Example 441] | ≤ 100
≤ 100 | ≤ 100 | ≤ 100 | CNC(=O)c1cc(-c2cncc(-c3cc(NC(=O)c4ccnc(C(C)(C)C#N)c4)ccc3C)c2)ccn1 [Example 442] | ≤ 100
1000 to 10000 | 1000 to 10000 | 1000 to 10000 | CNC(=O)c1cc(-c2cc(-c3cc(NC(=O)c4ccnc(C(C)(C)F)c4)ccc3C(F)(F)F)ccn2)ccn1 [Example 471] | 1000 to 10000

Source: US12319655B2, “RAF kinase inhibitors and methods of use thereof” (Deciphera Pharmaceuticals, LLC, priority 2021, dated 2025)
